# Assays:
# Assay in all cases: PDF Inhibition Assay
# Settings in all cases: pH 7.6; 25 °C
# Peptide deformylase [1] = biological target: T1, Peptide deformylase (Haemophilus influenzae (strain ATCC 51907 / DSM 11121 / KW20 / Rd), UniProt P44786)
# T1 sequence (P44786 whole entry): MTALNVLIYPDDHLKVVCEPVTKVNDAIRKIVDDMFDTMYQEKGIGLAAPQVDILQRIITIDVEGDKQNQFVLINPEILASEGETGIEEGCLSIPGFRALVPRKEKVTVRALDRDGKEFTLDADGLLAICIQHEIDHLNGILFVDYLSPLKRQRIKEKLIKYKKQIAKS
# Description: (§1) Enzyme assay was carried out in 96-well microtiter plates with a SpectraMax plate reader (Molecular Devices Corp.). PDF activity was measured using a continuous enzyme-linked assay. The reaction was triggered with the addition of PDF enzyme, and absorbance was monitored for 15 min at 340 nm. […] A standard curve with NADH concentrations ranging from 0 to 1 mM was performed. The velocities obtained in mOD340 nm per minute were then converted to micromolar NADH produced per second to calculate Vmax. To determine IC50s, PDF activity was measured in the presence of increasing concentrations of the inhibitor in the presence of substrate concentration corresponding to Km values. All data fitting was carried out with nonlinear least squares regression using the commercial software package Graphit.
# Peptide deformylase [2] = biological target: T2, Peptide deformylase (Escherichia coli (strain K12), UniProt P0A6K3)
# T2 sequence (P0A6K3 whole entry): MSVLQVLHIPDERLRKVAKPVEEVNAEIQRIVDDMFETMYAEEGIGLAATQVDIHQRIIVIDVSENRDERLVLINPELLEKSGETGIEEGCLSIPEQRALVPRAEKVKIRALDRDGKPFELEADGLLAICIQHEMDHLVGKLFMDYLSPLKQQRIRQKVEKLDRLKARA
# Description: as §1
# Peptide deformylase [3] = biological target: T3, Peptide deformylase (Staphylococcus aureus (strain Mu50 / ATCC 700699), UniProt P68825)
# T3 sequence (P68825 whole entry): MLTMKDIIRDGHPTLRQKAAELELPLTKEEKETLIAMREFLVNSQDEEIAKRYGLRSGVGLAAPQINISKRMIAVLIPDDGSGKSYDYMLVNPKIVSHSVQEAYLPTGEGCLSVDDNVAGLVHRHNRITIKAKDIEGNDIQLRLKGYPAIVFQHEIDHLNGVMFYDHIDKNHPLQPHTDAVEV
# Description: as §1
# Peptide deformylase [4] = biological target: T4, Peptide deformylase (Streptococcus pneumoniae (strain ATCC BAA-255 / R6), UniProt Q8DP79)
# T4 sequence (Q8DP79 whole entry): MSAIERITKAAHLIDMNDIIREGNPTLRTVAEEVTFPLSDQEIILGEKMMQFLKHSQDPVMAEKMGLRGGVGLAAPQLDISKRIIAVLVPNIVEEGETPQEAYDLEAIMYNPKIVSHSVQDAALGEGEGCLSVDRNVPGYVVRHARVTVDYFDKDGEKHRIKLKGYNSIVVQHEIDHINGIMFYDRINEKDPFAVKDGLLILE
# Description: as §1
IC50 (Peptide deformylase [1]) [nM],Structure (SMILES),IC50 (Peptide deformylase [2]) [nM],IC50 (Peptide deformylase [3]) [nM],IC50 (Peptide deformylase [4]) [nM]
1040,Cc1cccc(CCCN(O)C=O)n1 [N-hydroxy-N-[3-(6-methylpyridin-2-yl)propyl]formamide],–,–,–
320,O=CN(O)CCOc1cccc(C(=O)c2ccccc2)c1 [N-[2-(3-benzoylphenoxy)ethyl]-N-hydroxyformamide],–,–,–

Structure (SMILES),IC50 (Peptide deformylase [1]) [nM],IC50 (Peptide deformylase [2]) [nM],IC50 (Peptide deformylase [3]) [nM],IC50 (Peptide deformylase [4]) [nM]
O=CN(O)CCCc1ccccc1 [N-hydroxy-N-(3-phenylpropyl)formamide],150,160,250,400
